Entries after “also recorded” stand apart in the source; their conditions may differ. Like-named read-outs stand apart in the source and are kept apart here.
Columns and labels:
[1] = tested on: phenylquinone-induced muscular writhing; experiment: Analgesic activity, phenylquinone-writhing test; format: in vivo, Swiss albino mice; details: for Physiological activity: analgesic (in words): mouse, in vivo
Experimental: (§1) The compounds of formula (1) have anti-inflammatory, analgesic, hyperglycemic, and/or hypoglycemic properties. […] A. Winter, p.190-202, Int. Symposium on Non-Steroidal Anti-Inflammatory Drugs, Milan, 1964, Excerpta Medica Foundation, Amsterdam. […] J. Pharmac. Chemother. 32, 295 (1968). […] Chem. 3, 99 (1961) and by Barthelmai et al., in Klin. Wchschr. 40, 585 (1962).
(§2) Initially the activity of the compound tested on an animal was determined at a single dose. If the substance was active at this dose, it was subjected to limited repeat testing. If the presence of activity was confirmed by repetition of the testing, a dose response relation was constructed and the effective dose (ED50) determined. If toxicity was encountered with the initial dose, the dose was reduced until one was reached which was tolerated by the animals tested.
Substances were administered subcutaneously to five Swiss albino mice, weighing 18 to 22 grams, before determining their activity in the phenylquinone-writhing test (see Collier et al, cited above). The active ingredients were suspended in a solution of physiological saline and "Tween 80™" surfactant. A dose amounting to 10 milliliters of physiological saline solution and active ingredient per kilogram of bodyweight was administered to the mice according to the dosage as set out in Table 2. The test results are shown in Table 2, the compounds tested being compared to Aspirin™ and dextropropoxyphene™.

[2] = tested on: blood glucose; experiment: Determination of blood glucose (hyperglycemic / hypoglycemic activity); format: in vivo, Wistar rats; details: for % change in blood-glucose concentrations, post-treatment 2 hours / % change in blood-glucose concentrations, post-treatment 4 hours / ED50: oral, fasted rats; for % change in blood-glucose concentrations, post-treatment 2 hours / % change in blood-glucose concentrations, post-treatment 4 hours: 100 mg/kg; for ED50: Rattus norvegicus, dose elevating blood glucose by 50 percent; for Physiological activity: hyperglycemic (in words) / Physiological activity: hypoglycemic (in words): rat, in vivo
Experimental: as §1, §2
Compounds were suspended in distilled water and were administered orally to overnight-fasted Wistar rats. Capillary blood samples were obtained from the tail at zero, two, and four hours post-treatment and the sera derived from these samples were analyzed for glucose by spectrophotometric determination of enzymatically produced NADH2 (reduced form of nicotinamide adenine dinucleotide), using the commercial reagent "Escalab G-15™" according to the method described by Holland et al and by Barthelmai et al, both cited above. The test results are shown in Tables 4 and 5, and the ED50 values shown in Table 4 were calculated as the dose of compound which elevated blood glucose levels by 50 percent.

[3] = tested on: carrageenan-induced paw edema; experiment: Anti-inflammatory activity, carrageenan-induced paw edema; design: species or system Sprague-Dawley rats; details: rat, in vivo
Experimental: as §1, §2
Substances were administered subcutaneously to six Sprague-Dawley rats, weighing 100-120 g. A suspension of 0.03% carageenan was injected under the plantar skin of a hind paw. The increase in volume of the inflamed paw was measured 3 and 5 hours after drug administration.

[4] = Mus musculus, sc, mice, 128 mg/kg, read-out: Response % inhibition
[5] = Mus musculus, sc, mice, read-out: Response % inhibition
[6] = Mus musculus, sc, mice, Litchfield and Wilcoxon, read-out: ED50
[7] = 2 hours, read-out: ED50, hyperglycemic activity, post-treatment 2 hours
[8] = 4 hours, read-out: ED50, hyperglycemic activity, post-treatment 4 hours

CC(=O)Oc1ccccc1C(=O)O [Aspirin, reference compound]
ED50 ([1]; Mus musculus, sc): 52 mg/kg

CCCNC(=O)NS(=O)(=O)c1ccc(Cl)cc1 [Chlorpropamide, reference compound]
% change in blood-glucose concentrations, post-treatment 2 hours ([2]; 2 hours): > -40% | % change in blood-glucose concentrations, post-treatment 4 hours ([2]; 4 hours): > -40%

O=C(NN1CC=CCC1)c1cccc[n+]1[O-] [Compound A-36, N-(2-pyridylcarbonylamino-1-oxide)-1,2,3,6-tetrahydropyridine]
Physiological activity: anti-inflammatory (in words) [3]: anti-inflammatory | inhibition in vivo at 128 mg/kg [1, 4]: 55.3% | Physiological activity: analgesic (in words) [1]: analgesic

COC(=O)N1C=CC(C(=O)NN2CC=CCC2)=CC1 [Compound A-45, N-[4-(1-methoxycarbonyl-1,2-dihydropyridyl)carbonylamino]-1,2,3,6-tetrahydropyridine]
Physiological activity: anti-inflammatory (in words) [3]: striking anti-inflammatory action, comparing favourably with the standard compound used | inhibition in vivo at 16 mg/kg [1, 5]: 61% | inhibition in vivo at 32 mg/kg [1, 5]: 61% | inhibition in vivo at 128 mg/kg [1, 4]: 97% | inhibition in vivo at 256 mg/kg [1, 5]: 95% | Physiological activity: analgesic (in words) [1]: active analgesics; also recorded: analgesic

O=C(Cc1cccnc1)NN1CC=CCC1 [Compound A-48, N-(3-picolylcarbonylamino)-1,2,3,6-tetrahydropyridine]
Physiological activity: anti-inflammatory (in words) [3]: striking anti-inflammatory action, comparing favourably with the standard compound used | inhibition in vivo at 8 mg/kg ([1]; Mus musculus, sc, mice, 8 mg/kg, read-out: Response % inhibition): 28% | inhibition in vivo at 16 mg/kg [1, 5]: 45% | inhibition in vivo at 32 mg/kg [1, 5]: 94% | inhibition in vivo at 128 mg/kg [1, 4]: 100% | inhibition in vivo at 256 mg/kg [1, 5]: 100% | ED50 [1, 6]: 14.5 mg/kg | Physiological activity: analgesic (in words) [1]: active analgesics; also recorded: analgesic

COC(=O)N1CC=C(C(=O)NN2CC=CCC2)CC1 [Compound A-49, N-[4-(1-methoxycarbonyl-1,2,3,6-tetrahydropyridyl)carbonylamino]-1,2,3,6-tetrahydropyridine]
Physiological activity: anti-inflammatory (in words) [3]: anti-inflammatory | inhibition in vivo at 64 mg/kg [1, 5]: 3% | inhibition in vivo at 128 mg/kg [1, 4]: 78% | inhibition in vivo at 256 mg/kg [1, 5]: 95% | Physiological activity: analgesic (in words) [1]: active analgesics; also recorded: analgesic

CN1CC=C(C(=O)NN2CC=CCC2)CC1 [Compound A-50, N-[4-(1-methyl-1,2,3,6-tetrahydropyridyl)carbonylamino]-1,2,3,6-tetrahydropyridine]
inhibition in vivo at 256 mg/kg [1, 5]: 47% | Physiological activity: analgesic (in words) [1]: analgesic

O=C(CCc1ccccc1)NN1CC=CCC1 [Compound A-55, N-(phenylethylcarbonylamino)-1,2,3,6-tetrahydropyridine]
Physiological activity: anti-inflammatory (in words) [3]: striking anti-inflammatory action, comparing favourably with the standard compound used | inhibition in vivo at 120 mg/kg [1, 5]: 42% | Physiological activity: analgesic (in words) [1]: analgesic

O=C(COc1ccccc1)NN1CC=CCC1 [Compound A-62, N-(phenoxymethylenecarbonylamino)-1,2,3,6-tetrahydropyridine]
Physiological activity: anti-inflammatory (in words) [3]: striking anti-inflammatory action, comparing favourably with the standard compound used | ED50 [2, 7]: 41 mg/kg | ED50 [2, 8]: 53 mg/kg | Physiological activity: hyperglycemic (in words) [2]: significant hyperglycemic activity; also recorded: hypergylcemic | inhibition in vivo at 25 mg/kg ([1]; Mus musculus, sc, mice, 25 mg/kg, read-out: Response % inhibition): 50% | ED50 [1, 6]: 25 mg/kg | Physiological activity: analgesic (in words) [1]: active analgesics; also recorded: analgesic

O=C(NN1CC=CCC1)C1CCCCC1 [Compound A-63, N-(cyclohexylcarbonylamino)-1,2,3,6-tetrahydropyridine]
Physiological activity: anti-inflammatory (in words) [3]: striking anti-inflammatory action, comparing favourably with the standard compound used | ED50 [2, 7]: 36.5 mg/kg | ED50 [2, 8]: 53 mg/kg | Physiological activity: hyperglycemic (in words) [2]: significant hyperglycemic activity | inhibition in vivo at 16.5 mg/kg ([1]; Mus musculus, sc, mice, 16.5 mg/kg, read-out: Response % inhibition): 50% | ED50 [1, 6]: 16.5 mg/kg | Physiological activity: analgesic (in words) [1]: active analgesics; also recorded: analgesic

O=C(Cc1ccc2c(c1)OCO2)NN1CC=CCC1 [Compound A-70, N-(3,4-methylenedioxyphenylmethylenecarbonylamino)-1,2,3,6-tetrahydropyridine]
inhibition in vivo at 60 mg/kg ([1]; Mus musculus, sc, mice, 60 mg/kg, read-out: Response % inhibition): 80% | inhibition in vivo at 120 mg/kg [1, 5]: 91% | Physiological activity: analgesic (in words) [1]: active analgesics; also recorded: analgesic

COc1ccc(C(=O)NN2CC=CCC2)cc1 [Compound A-77, N-(4-methoxyphenylcarbonylamino)-1,2,3,6-tetrahydropyridine]
% change in blood-glucose concentrations, post-treatment 2 hours ([2]; 2 hours): -69% | % change in blood-glucose concentrations, post-treatment 4 hours ([2]; 4 hours): -26% | Physiological activity: hypoglycemic (in words) [2]: potent hypoglycemic activity | inhibition in vivo at 128 mg/kg [1, 4]: 31.4% | Physiological activity: analgesic (in words) [1]: analgesic

Cc1ccc(C(=O)NN2CC=CCC2)cc1 [Compound A-78, N-(4-methylphenylcarbonylamino)-1,2,3,6-tetrahydropyridine]
% change in blood-glucose concentrations, post-treatment 2 hours ([2]; 2 hours): -73% | % change in blood-glucose concentrations, post-treatment 4 hours ([2]; 4 hours): -41% | Physiological activity: hypoglycemic (in words) [2]: potent hypoglycemic activity | inhibition in vivo at 64 mg/kg [1, 5]: 92.4% | Physiological activity: analgesic (in words) [1]: active analgesics; also recorded: analgesic

O=C(NN1CC=CCC1)c1ccc(Cl)cc1 [Compound A-79, N-(4-chlorophenylcarbonylamino)-1,2,3,6-tetrahydropyridine]
% change in blood-glucose concentrations, post-treatment 4 hours ([2]; 4 hours): -26% | Physiological activity: hypoglycemic (in words) [2]: potent hypoglycemic activity | inhibition in vivo at 64 mg/kg [1, 5]: 33.9% | Physiological activity: analgesic (in words) [1]: analgesic

O=C(NN1CC=CCC1)c1ccc(Cl)c(Cl)c1 [Compound A-80, N-(3,4-dichlorophenylcarbonylamino)-1,2,3,6-tetrahydropyridine]
% change in blood-glucose concentrations, post-treatment 2 hours ([2]; 2 hours): -50% | % change in blood-glucose concentrations, post-treatment 4 hours ([2]; 4 hours): -50% | Physiological activity: hypoglycemic (in words) [2]: potent hypoglycemic activity | inhibition in vivo at 128 mg/kg [1, 4]: 72% | Physiological activity: analgesic (in words) [1]: active analgesics; also recorded: analgesic

CCC(=O)O[C@](Cc1ccccc1)(c1ccccc1)[C@H](C)CN(C)C [Dextropropoxyphene, reference compound]
ED50 ([1]; Mus musculus, sc): 56 mg/kg

N-(benzoylamino)-3(diethylaminocarbonyl)-1,2,3,6-tetrahydropyridine [Compound A-43]
Physiological activity: analgesic (in words) [1]: analgesic | Response % inhibition ([1]; s.c., mice, 128 mg/kg): 39.0%
